Assay results as given in US20040053292A1, “Proteins and dna sequences underlying these proteins used for treating inflammations” (priority 2000, published 2004).
Peptide text beside a SMILES is read from it. * marks the point of attachment. Cbz = O=C(OCc1ccccc1)*; CH2F = FC*

Test system: proIL-1β
Experiment: in vitro pro-IL1β activation in THP.1 cell lysates incubated at 30° C., Western blotting
Assay type: biochemical, human
Conditions: lysates of LPS-prestimulated THP.1 cells at 30° C.
Protocol: However, THP1 cells express caspase-5 even without LPS activation. FIG. 11c represents the results of experiments which emerge when cell lysates from THP.1 cells which have been prestimulated with LPS were incubated at 30° C. for the periods shown at the top in FIG. 11c. This is because caspase-1 activation is to be observed spontaneously when cytoplasmic cell extracts are heated to 30° C. The activation of caspase-1, caspase-5, caspase-9 and pro-IL1β, followed by Western blotting in the presence or absence of caspase inhibitors zVADfmk (50 μM), YVADfmk (5 μM) and proteasome inhibitor LLnL (50 μM) was measured as a function of time. Cytochrome C (1 ng) was added to activate Apaf-1 and caspase-9. The monoclonal antibodies employed to detect caspase-5 and caspase-9 each recognize the p20 subunit. The four sections of the picture in FIG. 11c depict the respective bands obtained by labeling with anti-caspase-1 antibody, anti-caspase-5 antibody, anti-caspase-9 antibody and anti-IL1β antibody. […]
Addition of the two caspase-1 inhibitors zVADfmk and YVADfmk blocked proIL-1β activation. […] Activation of pro-IL1β, caspase-1 and caspase-5 was measured both in the cell extracts (xt) and in the supernatants (SN). […] The cleavage of […] was detected by an antibody (anti-IL1β*) which specifically recognizes the cleaved form of pro-IL1β, i.e. IL1β*. […]

| Compound | proIL-1β activation (zVADfmk 50 μM) | proIL-1β activation (YVADfmk 5 μM) |
| --- | --- | --- |
| COC(=O)C[C@H](NC(=O)[C@H](C)NC(=O)[C@@H](NC(=O)OCc1ccccc1)C(C)C)C(=O)CF [zVADfmk] (Cbz-Val-Ala-Asp(OMe)-CH2F) | blocked | – |
| YVADfmk | – | blocked |
